How the values were obtained:
[1] = tested on: panel of 442 kinases; assay: kinase selectivity panel of 442 kinases; assay type: binding; details: 10 μM, 386 nonmutant
[2] = tested on: iron-mediated neuronal damage; details: likely by reduced phosphorylation of hemeoxygenase by ERK; cited from earlier work
[3] = molecular target: EGFR (Homo sapiens, UniProt P00533); assay: dissociation constant against EGFR; assay type: binding; details: read-out: Kd EGFR
[4] = molecular target: MEK1 (Homo sapiens, UniProt Q02750); assay: dissociation constant against MEK1; assay type: binding; details: read-out: Kd MEK1
Chain of MEK1 (Q02750 whole entry): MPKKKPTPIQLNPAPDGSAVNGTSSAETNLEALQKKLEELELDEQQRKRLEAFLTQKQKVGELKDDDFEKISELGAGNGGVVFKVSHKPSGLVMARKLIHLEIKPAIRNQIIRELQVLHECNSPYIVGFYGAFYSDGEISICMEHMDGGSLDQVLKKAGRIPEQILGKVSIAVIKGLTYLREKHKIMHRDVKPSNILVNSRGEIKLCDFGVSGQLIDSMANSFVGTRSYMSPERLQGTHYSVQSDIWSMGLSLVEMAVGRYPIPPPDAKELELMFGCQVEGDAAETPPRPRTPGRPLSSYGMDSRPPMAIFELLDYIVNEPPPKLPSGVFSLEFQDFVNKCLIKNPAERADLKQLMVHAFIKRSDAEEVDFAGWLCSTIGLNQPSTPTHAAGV

Chain of EGFR (P00533 25-1210): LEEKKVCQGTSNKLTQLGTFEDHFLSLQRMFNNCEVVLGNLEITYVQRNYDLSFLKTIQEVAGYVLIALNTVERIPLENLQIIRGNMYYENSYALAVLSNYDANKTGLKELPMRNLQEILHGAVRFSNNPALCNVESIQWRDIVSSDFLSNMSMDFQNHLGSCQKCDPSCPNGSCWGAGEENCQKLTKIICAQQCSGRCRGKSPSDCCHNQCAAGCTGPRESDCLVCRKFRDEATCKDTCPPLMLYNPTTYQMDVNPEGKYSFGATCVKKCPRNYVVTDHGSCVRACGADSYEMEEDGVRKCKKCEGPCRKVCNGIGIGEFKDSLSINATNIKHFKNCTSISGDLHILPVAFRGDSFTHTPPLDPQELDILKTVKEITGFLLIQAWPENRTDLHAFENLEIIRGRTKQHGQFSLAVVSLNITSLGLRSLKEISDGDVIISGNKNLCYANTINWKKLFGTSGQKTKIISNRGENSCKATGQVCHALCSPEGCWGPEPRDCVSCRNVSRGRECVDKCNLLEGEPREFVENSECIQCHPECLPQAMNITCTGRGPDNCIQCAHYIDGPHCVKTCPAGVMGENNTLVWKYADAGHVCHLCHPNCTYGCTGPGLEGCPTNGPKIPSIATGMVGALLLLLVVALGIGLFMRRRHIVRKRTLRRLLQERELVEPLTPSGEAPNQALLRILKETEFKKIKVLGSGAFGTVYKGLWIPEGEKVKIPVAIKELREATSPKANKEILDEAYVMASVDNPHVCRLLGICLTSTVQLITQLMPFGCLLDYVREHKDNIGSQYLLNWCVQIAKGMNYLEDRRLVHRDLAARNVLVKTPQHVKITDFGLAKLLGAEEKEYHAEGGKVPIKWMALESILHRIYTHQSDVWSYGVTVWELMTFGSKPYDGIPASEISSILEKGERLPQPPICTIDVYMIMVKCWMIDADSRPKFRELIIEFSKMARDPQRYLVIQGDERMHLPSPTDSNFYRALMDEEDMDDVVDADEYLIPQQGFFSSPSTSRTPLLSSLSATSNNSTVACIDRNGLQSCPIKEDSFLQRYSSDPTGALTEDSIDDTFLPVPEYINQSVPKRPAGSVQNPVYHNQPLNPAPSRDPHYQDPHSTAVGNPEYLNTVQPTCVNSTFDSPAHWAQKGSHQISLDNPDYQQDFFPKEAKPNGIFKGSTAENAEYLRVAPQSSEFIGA

Nc1[nH]nc2nnc(-c3c(-c4ccccc4)nn4ccccc34)cc12 [FR180204]
number of nonmutant kinases with >90% inhibition of kinase activity [1]: 29/386 | number of nonmutant kinases with >99% inhibition of kinase activity [1]: 12 out of 386 | effect on iron-mediated neuronal damage caused by hemoglobin breakdown [2]: can reduce iron-mediated neuronal damage | Kd [3]: 1.2 µM | Kd [4]: 8.7 µM

Reference: article PMC2862695 (The Journal of organic chemistry, 2009)
